Measurements from patent US20250186418A1, “COMPOSITIONS CONTAINING NICOTINAMIDE AND VITAMIN B6 AND METHODS OF USING SUCH COMPOSITIONS FOR REHABILITATION” (SOCIETE DES PRODUITS NESTLE S.A., priority 2020, published 2025).

Tested on: Human primary myoblasts
Test: Myogenic amplification and commitment of muscle stem cells (Pax7/MyoD staining of human primary myoblasts)
Format: cell-based
Conditions: donors 1 and 2 pooled, normalized to total cell number, control DMSO 1%, 96 hours; for proportion of MyoD+ cells, fold change compared to the control condition: FIG. 1B/2B
Experimental: Human Skeletal Muscle Myoblasts were purchased from Lonza (https://bioscience.lonza.com). These cells were isolated from the upper arm or leg muscle tissue of normal donors and used after the second passage. Several donors were tested to ensure cell viability and purity before selecting the final donors, which are a person (refer thereafter as Donor 1), a person (refer thereafter as Donor 2) and a person (refer thereafter as Donor 3). Human primary myoblasts were seeded in 384 well plates at a density of 1'000 cells per well in skeletal muscle growth medium (SKM-M, AMSbio). For treatment, compounds were directly added to the myoblast cultures 16 hours after initial plating. All cultures were then grown for 96 hours. Cells were stained for Pax7 and MyoD expression using antibodies directed against Pax7 and MyoD and counterstained with Hoechst 33342 to visualize cell nuclei. Pax7+ cells are defined as cells that express Pax7 regardless of MyoD expression. […] Image acquisition was performed using the ImageXpress (Molecular Devices) platform. Custom module analysis based on Multi-Wavelength Cell Scoring of the MetaXpress software was used for quantification. *, **, ***, **** indicates difference from the control, One-way ANOVA, with p<0.05, p<0.01, p<0.001, p<0.0001, respectively. Data are presented as Mean+/−SEM Human primary myoblasts from different donors (donor 1, donor 2 or donor 3) were seeded in 384 well plates at a density of 1′000 cells per well in skeletal muscle growth medium (SKM-M, AMSbio). For treatment, compounds were directly added to the myoblast cultures 16 hours after initial plating. All cultures were then grown for 96 hours. Cells were stained for Pax7 and MyoD expression using antibodies directed against Pax7 and MyoD and counterstained with Hoechst 33342 to visualize cell nuclei. Pax7+ cells are defined as cells that express Pax7 regardless of MyoD expression. […] Image acquisition was performed using the ImageXpress (Molecular Devices) platform. Custom module analysis based on Multi-Wavelength Cell Scoring of the MetaXpress software was used for quantification. […]

Row | SMILES | proportion of Pax7+ cells, fold change compared to the control condition (FIG. 1A/2A) | proportion of MyoD+ cells, fold change compared to the control condition
1 | NC(=O)c1cccnc1 [Nicotinamide] | increasing the proportion of both amplifying (Pax7+) and differentiating (MyoD+) cells in a dose dependent manner | increasing the proportion of both amplifying (Pax7+) and differentiating (MyoD+) cells in a dose dependent manner
2 | Cc1ncc(CO)c(CO)c1O [Pyridoxine] |  | increasing the proportion of differentiating (MyoD+) cells in a dose dependent manner
